From paper PMC4769088, “Antifungal Activity and Action Mechanism of Histatin 5-Halocidin Hybrid Peptides against Candida ssp” (PLoS ONE, 2016)
Where a SMILES comes first, the peptide text is derived from it. Bridges are numbered along the chain shown (N, C = ends). Roman numbers before positions name the chains, in order.

System: pustulan (β-1,6-glucan polymer), C. albicans cell wall component
Test: Binding/radial diffusion assay with pustulan
Assay type: cell-based
Conditions: peptide final 180 μg/ml, pre-incubated 2 h at 37°C, radial diffusion assay
Protocol: The candidacidal activities of the peptides were tested by using standard microdilution plate assays, radial diffusion assays and broth dilution assay slightly modified from the procedure recommended by the National Committee for Clinical Laboratory Standards. For the candidacidal assays, C. albicans cells were grown in YPD medium and washed twice with 10 mM sodium phosphate buffer (NaPB; Na2HPO4, NaH2PO4, pH 7.4). The cells (1 x 10^6) were then mixed with different concentrations of peptides and incubated at 30°C with constant shaking for 60 min. For energy depletion experiments, cells were pre-incubated with 10 mM NaPB containing 5 mM NaN3 at 30°C for 60 min before the addition of peptides. The cell suspensions were diluted in 10 mM NaPB and aliquots of 500 cells were spread onto YPD agar plates then incubated for 24 h at 30°C to visualize the surviving colonies. Cell survival was expressed as a percentage of that for the control, and the loss of viability was calculated as [1 x (number of colonies from peptide-treated cells/number of colonies from control cells)] x 100. […] The clear-zone diameters were measured to the nearest 0.1 mm and graphed against the peptide concentration. […] The numbers of yeasts were counted using a hemocytometer. […] The antifungal activities were evaluated after 24 h of incubation at 30°C by the observation of visible turbidity the wells. […]

SMILES	pustulan concentration at which activity began to decrease [mg/mL]
CC(C)C[C@H](NC(=O)CNC(=O)[C@H](Cc1c[nH]cn1)NC(=O)[C@H](Cc1c[nH]cn1)NC(=O)[C@H](CC(C)C)NC(=O)[C@H](CC(C)C)NC(=O)[C@H](C)NC(=O)[C@H](CC(N)=O)NC(=O)[C@H](CC(C)C)NC(=O)[C@@H](N)Cc1c[nH]c2ccccc12)C(=O)N[C@@H](CC(N)=O)C(=O)N[C@@H](CSSC[C@H](NC(=O)[C@H](CC(N)=O)NC(=O)[C@H](CC(C)C)NC(=O)CNC(=O)[C@H](Cc1c[nH]cn1)NC(=O)[C@H](Cc1c[nH]cn1)NC(=O)[C@H](CC(C)C)NC(=O)[C@H](CC(C)C)NC(=O)[C@H](C)NC(=O)[C@H](CC(N)=O)NC(=O)[C@H](CC(C)C)NC(=O)[C@@H](N)Cc1c[nH]c2ccccc12)C(=O)N[C@@H](C)C(=O)N[C@@H](CCCCN)C(=O)NCC(=O)N[C@H](C(=O)N[C@@H](CC(C)C)C(=O)N[C@@H](C)C(N)=O)C(C)C)C(=O)N[C@@H](C)C(=O)N[C@@H](CCCCN)C(=O)NCC(=O)N[C@H](C(=O)N[C@@H](CC(C)C)C(=O)N[C@@H](C)C(N)=O)C(C)C [di-18Hc, reference compound] (I: H-WLNALLHHGLNCAKGVLA-NH2 / II: H-WLNALLHHGLNCAKGVLA-NH2; disulfide I:12-II:12 (inferred); N-terminus assumed)	20
CC(C)C[C@H](NC(=O)[C@@H](N)Cc1c[nH]c2ccccc12)C(=O)N[C@@H](CC(N)=O)C(=O)N[C@@H](C)C(=O)N[C@@H](CCCCN)C(=O)N[C@@H](CCCNC(=N)N)C(=O)N[C@@H](Cc1c[nH]cn1)C(=O)N[C@@H](Cc1c[nH]cn1)C(=O)NCC(=O)N[C@@H](Cc1ccc(O)cc1)C(=O)N[C@@H](CCCCN)C(=O)N[C@@H](CSSC[C@H](NC(=O)[C@H](CCCCN)NC(=O)[C@H](Cc1ccc(O)cc1)NC(=O)CNC(=O)[C@H](Cc1c[nH]cn1)NC(=O)[C@H](Cc1c[nH]cn1)NC(=O)[C@H](CCCNC(=N)N)NC(=O)[C@H](CCCCN)NC(=O)[C@H](C)NC(=O)[C@H](CC(N)=O)NC(=O)[C@H](CC(C)C)NC(=O)[C@@H](N)Cc1c[nH]c2ccccc12)C(=O)N[C@@H](CCCCN)C(=O)N[C@@H](Cc1ccccc1)C(=O)N[C@@H](Cc1c[nH]cn1)C(N)=O)C(=O)N[C@@H](CCCCN)C(=O)N[C@@H](Cc1ccccc1)C(=O)N[C@@H](Cc1c[nH]cn1)C(N)=O [di-WP2] (I: H-WLNAKRHHGYKCKFH-NH2 / II: H-WLNAKRHHGYKCKFH-NH2; disulfide I:12-II:12 (inferred); N-terminus assumed)	20
